Assay results from article PMC6744936, “Genome-wide identification, characterization and expression pattern analysis of APYRASE family members in response to abiotic and biotic stresses in wheat” (PeerJ, 2019).

System: T1, TaAPY3-1
T1 construct: pET22a, E. coli BL21; genome set A copy
Experiment: phosphate release (Phosphate Assay Kit)
Format: biochemical, Triticum aestivum
Conditions: 37 °C, pH 5.5, 8 mM Ca2+

Compound: Nc1ncnc2c1ncn2[C@@H]1O[C@H](COP(=O)(O)OP(=O)(O)OP(=O)(O)O)[C@@H](O)[C@H]1O [ATP]
- Km: 8.7 mM
